One may read the IC50 as the concentration needed to halve the response being measured.

≈ marks a conversion by molar mass, not a printed value. Like-named read-outs stand apart in the source and are kept apart here.

Consider six compounds from publication PMC12386809, “Phenanthrene Monomers and Dimers from Juncus tenuis with Antiproliferative Activity and Synergistic Effect with Doxorubicin Against Human Colon Cancer Cell Lines” (International Journal of Molecular Sciences, 2025).

Series [1] has as its system COLO 320/MDR-LRP multidrug-resistant human colonic adenocarcinoma cells. Briefly: MTT antiproliferative assay, COLO 320. Type of series: cell-based. Particulars: COLO 320 (multidrug-resistant), read-out: IC50 (µM) ± SD COLO 320. The method, then: (§1) The antiproliferative effects of the isolated phenanthrenes (compounds 1–19) were evaluated using human cancer cell lines, including doxorubicin-sensitive colonic adenocarcinoma COLO 205 and multidrug-resistant colonic adenocarcinoma COLO 320/MDR-LRP (which expresses P-glycoprotein [MDR1] and LRP), as well as non-cancerous human lung fibroblast CCD-19Lu cells. CCD-19Lu was chosen because it is a well-characterized, non-tumorigenic cell line commonly used to assess general cytotoxicity. Moreover, data from the literature support the use of lung fibroblast cell lines—including CCD-19Lu—as normal controls in studies involving colon cancer cells such as Colo 205 and Colo 320 [33]. The thiazolyl blue tetrazolium bromide (MTT) assay was employed to determine the concentration of each compound required to inhibit 50% of the cell viability (IC50), as summarized in Table 3.
(§2) The human colon adenocarcinoma cells—COLO 205 (CCL-222, doxorubicin-sensitive) and COLO 320/MDR-LRP (ATCC-CCL-220.1, multidrug-resistant, expressing P-gp)—were cultured in RPMI 1640 medium supplemented with 10% heat-inactivated fetal bovine serum, 2 mM of L-glutamine, 1 mM of sodium pyruvate, and 100 mM of HEPES. The non-cancerous human lung fibroblast cell line CCD-19Lu was maintained in Eagle’s Minimal Essential Medium (EMEM; containing 4.5 g/L of glucose) supplemented with a non-essential amino acid mixture, selected vitamins, and 10% heat-inactivated fetal bovine serum. All of the cell lines were detached using 0.25% trypsin and 0.02% EDTA for 5 min at 37 °C. The cell lines were obtained from LGC Promochem (Teddington, England).
(§3) Human colonic adenocarcinoma cell lines—doxorubicin-sensitive COLO 205 and multidrug-resistant COLO 320—as well as the non-cancerous human lung fibroblast cell line CCD-19Lu were used to evaluate the effects of the test compounds on cell proliferation. The assays were conducted in 96-well flat-bottomed microtiter plates. Stock solutions of the compounds were prepared in dimethyl sulfoxide (DMSO), with the final DMSO concentration kept below 1% in all samples. The compounds were diluted in 100 µL of the appropriate culture medium. Adherent cells were cultured in EMEM supplemented with 10% heat-inactivated fetal bovine serum and seeded into 96-well plates at a density of 6 × 10^3 cells per 100 µL per well. The cells were allowed to adhere for 24 h at 37 °C in a humidified incubator with 5% CO2. After incubation, the medium was removed and replaced with 100 µL of fresh medium. Serial dilutions of the compounds were prepared in separate plates and added to the cells, starting from a concentration of 100 µM with twofold serial dilutions (final concentration range: 100–0.19 µM). The cells were then incubated for 72 h at 37 °C. At the end of the incubation period, 20 µL of thiazolyl blue tetrazolium bromide (MTT) solution (5 mg/mL, Sigma) was added to each well. After 4 h of incubation at 37 °C, 100 µL of 10% sodium dodecyl sulfate (SDS) in 0.01 M HCl was added to solubilize the formazan crystals, and the plates were incubated overnight at 37 °C. Cell viability was assessed by measuring the optical density (OD) at 540/630 nm using a Multiscan EX ELISA reader (Thermo Labsystems, Cheshire, WA, USA).
(§4) The inhibitory concentration that reduced cell growth by 50% (IC50) was determined from the dose–response curves. The percent inhibition was calculated using the formula100 − ((OD_sample − OD_medium control)/(OD_cell control − OD_medium control)) × 100
(§5) Dose–response curves were generated by plotting the percent inhibition against the logarithm of the compound concentrations and fitted using Prism5 software (Version 6, GraphPad Software Inc., San Diego, CA, USA). The IC50 values were derived from four independent experiments conducted in parallel for each cell line and are reported as the mean values.
(In general: Formazan colour is commonly taken as a measure of viable cells.)

Series [2] deals with COLO 205 (doxorubicin-sensitive) human colonic adenocarcinoma cells. Briefly: MTT antiproliferative assay, COLO 205. It is filed as cell-based. Particulars: read-out: IC50 (µM) ± SD COLO 205. Here is the method:
as §1, §2, §3, §4, §5

Series [3] relates to multidrug-resistant COLO 320 cells. The series is described as follows: Drug combination assay with doxorubicin (Chou-Talalay, MTT). It is filed as cell-based, human. Particulars: for CI at ED50 (combination index): combination with doxorubicin, COLO 320, 72 h, Chou-Talalay; for Interaction: interaction with doxorubicin in COLO 320, class from CI. The method, then: One promising approach involves the discovery of new bioactive natural products. To explore this, a chemosensitivity assay was conducted to examine the in vitro interactions between the isolated compounds and the antineoplastic agent doxorubicin, a substrate of P-glycoprotein (P-gp). A combination chemotherapy model was applied using human COLO 320 colon carcinoma cells. The combination index (CI), calculated according to the Chou–Talalay method, was used to evaluate drug–drug interactions, classifying them as synergistic (CI < 1), additive (CI = 1), or antagonistic (CI > 1) (Table 4).
The multidrug-resistant COLO 320 cell line was used to perform the drug combination assay. Doxorubicin (2 mg/mL, Teva Pharmaceuticals, Budapest, Hungary) was serially diluted horizontally, starting with 8.6 µM. The resistance modifier was subsequently diluted vertically, with the starting concentration determined based on the IC50 value. Doxorubicin was diluted horizontally in 100 µL, while the resistance modifiers were diluted vertically in 50 µL in the microtiter plate. The compounds and doxorubicin were prepared as separate dilutions. The cells were seeded at a density of 6 × 10^3 cells per well into 100 µL of medium and incubated for 24 h at 37 °C in a 5% CO2 atmosphere prior to treatment. After this period, the culture medium was removed, and 50 µL of fresh medium was added to each well, followed by the addition of 50 µL of the diluted compounds, resulting in a final volume of 200 µL per well. The plates were then incubated for 72 h at 37 °C under 5% CO2. The cell viability was assessed at the end of incubation using the MTT assay, as described previously. Drug interactions were analyzed using CompuSyn software (Version 1.00).
The dose–response curves for individual agents and their combinations were fitted to a linear model based on the median-effect equation to calculate the median effective dose (IC50) and the slope (m). The quality of the fit was evaluated using the linear correlation coefficient (r), and only data with r > 0.90 are reported. The extent of drug interaction was quantified using the combination index (CI), where CI ≈ 1 indicated an additive effect, CI < 1 signified synergy, and CI > 1 denoted antagonism.

The test system of series [4] is HT22 cells (mouse hippocampal neuroblastoma cell line). Also on record: method as in doi:10.1007/s11101-018-9561-5, PMID 25794817. Particulars: 100 µM, 24 h; cited from earlier work.
For series [5], the system named is CCD-19Lu non-cancerous human lung fibroblast cells. The series is described as follows: MTT antiproliferative assay, CCD-19Lu. Type of series: cell-based. Particulars: 72 h, CCD-19Lu non-tumorigenic fibroblasts, read-out: IC50 (µM) ± SD CCD-19Lu. Here is the method: as §1, §2, §3, §4, §5
The subject of series [6] is HeLa cells. Set-up: method as in PMID 33348712. Particulars: cited from earlier work.
The subject of series [7] is NCI 90 KB (human epidermoid nasopharynx carcinoma) cells. Set-up: method as in PMID 830696. Particulars: NCI 90 KB cells; cited from earlier work.
The subject of series [8] is SMMC-7721. Also on record: method as in PMID 26072042. Particulars: cited from earlier work.
In series [9] the test system is MCF-7. Also on record: method as in PMID 26072042. Particulars: cited from earlier work.
The test system of series [10] is HepG-2. Also on record: method as in PMID 26072042. Particulars: cited from earlier work.
Series [11] relates to HepG2 cells. Particulars: cited from earlier work.
On the set-up of series [12]: method as in PMID 31125040. Particulars: cited from earlier work.

Take `C=Cc1c(C)c(O)cc2c1ccc1c(C)c(O)ccc12` [Compound 8, dehydrojuncuenin B]: the half-maximal inhibitory concentration (IC50) in [1] (Homo sapiens, COLO 320, 72 h) came to 17.9 ± 1.59 µM; in series [2] (Homo sapiens, COLO 205, 72 h), 20.7 ± 0.47 µM; in series [5], 22.8 ± 0.55 µM. The “CI at ED50 (combination index)” value in series [3] was found to be 2.126. The Interaction entry in [3] is recorded as “antagonism (1.45 < CI < 3.3, antagonism)”. For the same compound, the “decrease in MTT reduction” value in series [4] is 8.4%.

For the compound `C=Cc1cc(O)cc2c1-c1ccc(O)c(C)c1CC2` [Compound 10, effusol], the concentration for half-maximal inhibition (IC50) was 49.7 ± 2.12 µM in series [1] (72 h); 49.7 µM in [1] (Homo sapiens, COLO 320, 72 h); 52.7 ± 1.85 µM in series [2] (72 h); 52.7 µM in series [2] (Homo sapiens, COLO 205, 72 h); 2.3 µM in series [6]; 96 ± 2.66 µM in series [5]. Besides, in series [3], the “CI at ED50 (combination index)” value worked out at 1.123. Besides, in series [3], the Interaction entry is listed as “slight antagonism”. The “decrease in MTT reduction” value in [4] was 9.9%.

For the compound `C=Cc1c(C)c(O)cc2c1-c1ccc(O)c(C)c1CC2` [Compound 11, juncusol], the half-inhibitory concentration (IC50) in [1] (Homo sapiens, COLO 320, 72 h) is 36.2 ± 3.81 µM; in series [2] (Homo sapiens, COLO 205, 72 h) it was 31.9 ± 1.91 µM; in series [6], 0.5 µM; in series [5], 44.4 ± 2.82 µM. The ED50 in [7] was 0.3 µg/mL (≈ 1.13 µM). Moreover, in series [3], the “CI at ED50 (combination index)” value was found to be 0.582. For the same compound, the Interaction entry in series [3] is given as “synergism (0.3 < CI < 0.7, synergism)”. Further, the “decrease in MTT reduction” value in [4] is listed as 25.4%.

`C=Cc1cc(O)cc2c1-c1cc(-c3c(O)cc(C=C)c4c3ccc3c(C)c(O)ccc34)c(O)c(C)c1CC2` [effususin B]: the results for the IC50 in series [8], in series [9] and in [10] were 13.6 µM, 12.5 µM and 12.9 µM, respectively.

In the case of `C=CC1=C(C)C(=O)C=C2c3ccc(O)c(C)c3CCC21O` (centres unmarked) [juncuenin D, reference compound], in series [4], the “decrease in MTT reduction” value was 23.7%.

As to juncunol, in series [11] (HepG2, concentration-dependent (IC50 value ± 25%)), the apoptotic cells result is “increase in the number of apoptotic cells”. In series [11] (HepG2), the cell cycle arrest entry is listed as “G0/G1 phase” and the Δψm entry is listed as “decrease in Δψm”. Besides, the IC50 in series [11] (HepG2 cells) was 18 µM. Also, the hemolytic properties entry in series [12] is recorded as “no hemolytic properties”.
